The data set concerns the target ATP-dependent translocase ABCB1 (Homo sapiens, UniProt P08183). Description: TP_TRANSPORTER: RT-PCR in Caco-2 cells. It counts as functional, cell-based.

Sequence of ATP-dependent translocase ABCB1 (P08183 whole entry): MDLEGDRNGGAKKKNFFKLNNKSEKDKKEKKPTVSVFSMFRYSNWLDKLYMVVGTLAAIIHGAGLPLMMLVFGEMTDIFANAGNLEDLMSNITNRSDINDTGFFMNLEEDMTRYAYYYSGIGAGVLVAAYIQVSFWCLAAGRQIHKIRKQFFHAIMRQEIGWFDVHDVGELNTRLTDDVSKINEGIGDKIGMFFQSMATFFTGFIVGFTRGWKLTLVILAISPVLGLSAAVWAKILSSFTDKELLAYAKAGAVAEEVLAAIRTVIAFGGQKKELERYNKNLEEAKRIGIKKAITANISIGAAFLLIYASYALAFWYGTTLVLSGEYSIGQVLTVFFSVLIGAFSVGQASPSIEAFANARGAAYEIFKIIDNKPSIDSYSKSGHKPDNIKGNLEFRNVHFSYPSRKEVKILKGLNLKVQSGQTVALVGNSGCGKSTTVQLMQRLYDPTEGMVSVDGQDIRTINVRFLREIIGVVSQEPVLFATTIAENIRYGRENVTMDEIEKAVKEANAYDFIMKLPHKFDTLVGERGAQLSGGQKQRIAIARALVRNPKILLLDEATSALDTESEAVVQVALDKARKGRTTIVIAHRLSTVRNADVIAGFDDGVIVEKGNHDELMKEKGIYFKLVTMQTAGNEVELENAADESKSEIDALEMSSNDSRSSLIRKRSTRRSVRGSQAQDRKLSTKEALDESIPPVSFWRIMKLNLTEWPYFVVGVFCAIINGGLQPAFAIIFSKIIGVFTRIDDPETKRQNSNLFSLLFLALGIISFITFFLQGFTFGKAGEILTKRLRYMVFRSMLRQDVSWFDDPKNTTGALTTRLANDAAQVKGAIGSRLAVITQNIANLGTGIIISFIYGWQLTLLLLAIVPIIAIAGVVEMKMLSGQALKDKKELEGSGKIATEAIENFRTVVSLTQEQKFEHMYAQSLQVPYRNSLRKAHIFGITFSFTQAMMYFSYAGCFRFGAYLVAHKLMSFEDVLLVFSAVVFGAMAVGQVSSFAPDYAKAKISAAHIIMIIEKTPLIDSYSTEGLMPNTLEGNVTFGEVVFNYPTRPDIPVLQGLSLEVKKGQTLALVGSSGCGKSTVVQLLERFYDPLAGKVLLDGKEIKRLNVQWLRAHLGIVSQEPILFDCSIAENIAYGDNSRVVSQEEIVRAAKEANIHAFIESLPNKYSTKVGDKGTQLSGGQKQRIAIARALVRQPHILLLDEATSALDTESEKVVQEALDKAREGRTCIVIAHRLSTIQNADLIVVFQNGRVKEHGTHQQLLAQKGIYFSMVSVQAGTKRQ

`C[C@H]1O[C@@H](O[C@H]2[C@@H](O)C[C@H](O[C@H]3[C@@H](O)C[C@H](O[C@H]4CC[C@@]5(C)[C@H](CC[C@@H]6[C@@H]5C[C@@H](O)[C@]5(C)[C@@H](C7=CC(=O)OC7)CC[C@]65O)C4)O[C@@H]3C)O[C@@H]2C)C[C@H](O)[C@@H]1O` [DIGOXIN]: the Activity entry was “inducer [+]”.

The values above are taken from ChEMBL document CHEMBL2074250, “Digoxin up-regulates MDR1 in human colon carcinoma Caco-2 cells” (Biochem Biophys Res Commun, 2002).
